The record followed here is patent US20240376080A1, “COMPOUND AS TYK2/JAK1 PSEUDOKINASE DOMAIN INHIBITOR, AND SYNTHESIS AND USE METHODS” (ZHEJIANG WENDA PHARMACEUTICAL TECHNOLOGY CO., LTD., priority 2021, published 2024).

Structures are written as SMILES.

TYK2 (JH1), sequence (P29597 897-1176): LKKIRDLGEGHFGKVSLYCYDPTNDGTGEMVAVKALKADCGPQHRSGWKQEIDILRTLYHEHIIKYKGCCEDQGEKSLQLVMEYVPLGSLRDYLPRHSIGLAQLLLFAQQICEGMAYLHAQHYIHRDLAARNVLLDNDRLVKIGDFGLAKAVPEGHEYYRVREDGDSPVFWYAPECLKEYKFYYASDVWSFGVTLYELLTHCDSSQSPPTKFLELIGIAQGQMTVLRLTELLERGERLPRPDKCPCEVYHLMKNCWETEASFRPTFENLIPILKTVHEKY

One assay deals with TYK2 (JH1) (Homo sapiens (Human), UniProt P29597). In words: Kinase (JH1) experiment, TYK2. The note with it: kinase domain. It is filed as biochemical. On the procedure: 1.2. Kinase (JH1) Experiment Operation was as Follows:
1.2.1. Dissolve the compound with DMSO to a storage concentration of 10 mM.
1.2.2. Prepare a compound with a concentration of 100 times the final concentration in a compound dilution plate by diluting it from the highest concentration point for a total of 4 concentration points using a 27 times dilution method, and transfer it to the Echo plate.
1.2.3. Use an Echo instrument to pulse the compound from the Echo plate to a 384 experimental plate, thereby obtain the compound with 11 concentration points of the 3-fold dilution matrix.
1.2.4. Configure a 2× kinase working solution and add it to a 384-well experimental plate at 5 uL per well. Incubate the compound and the kinase at room temperature for 15 minutes.
1.2.5. Add 5 ul 2× substrate (containing ATP) to the 384 well plate.
1.2.6. Incubate at room temperature for 45 minutes.
1.2.7. Add the detection reagent mixture to the 384-well plate, centrifuge for 30 seconds, and incubate at room temperature for 60 minutes.
1.2.8. Read the signal values using Envision Microplate Reader (PerkinElmer).
1.3.1. Use XL-Fit software for data analysis to obtain IC50 of the compounds, see Table 2 for results.
Compound `[2H]C([2H])([2H])NC(=O)c1cnc(NC(=O)[C@@H]2CC23CC3)cc1Nc1cccc(-c2ncn(C)n2)c1OC` [Compound 4R] showed an IC50 above 9950 nM. Same read-out and setting: in the case of `[2H]C([2H])([2H])NC(=O)c1nnc(NC(=O)[C@H]2CC23CC3)cc1Nc1nccc(-c2ncn(C)n2)c1OC` [Compound 2S] it was above 9950 nM. Regarding `[2H]C([2H])([2H])NC(=O)c1nnc(NC(=O)[C@@H]2CC23CC3)cc1Nc1cccc(-c2ncn(C)n2)c1OC` [Compound 1R], the IC50 was above 9950 nM. The same measure, in the same setting: in the case of `[2H]C([2H])([2H])NC(=O)c1nnc(NC(=O)[C@@H]2CC23CC3)cc1Nc1nccc(-c2ncn(C)n2)c1OC` [Compound 2R] it was above 9950 nM. On the same count and under the same terms, with `[2H]C([2H])([2H])NC(=O)c1cnc(NC(=O)[C@H]2CC23CC3)cc1Nc1cccc(-c2ncn(C)n2)c1OC` [Compound 4S] the figure was above 9950 nM. The same measure, in the same setting: with `[2H]C([2H])([2H])NC(=O)c1nnc(NC(=O)[C@H]2CC23CC3)cc1Nc1cccc(-c2ncn(C)n2)c1OC` [Compound 1S] the figure was above 9950 nM.

The subject of the next assay is IFN-α/pSTAT5 in CD3+ cells (human PBMC). In words: Inhibitory effect on expression of pSTAT5 in CD3+ cells using FACS detection (IFN-α stimulated). It is filed as cell-based. The note with it: IFN-α 30 ng/ml. The method, then: Test Example 1: The Inhibitory Effect of Compounds on the Expression of pSTAT5 in CD3+Cells Using FACS Detection
• DMSO, Sigma, Cat #D2650-100 mL, stored at room temperature. • Perm buffer III, BD Biosciences, Cat #558050, stored at 4° C. • Lyse/Fix buffer, BD Biosciences, Cat #558049, stored at room temperature. • EDTA, Invitrogen, Cat #15575-038, stored at room temperature. • PBS, Hyclone, Cat #SH30256.01, stored at 4° C. • PE Mouse Anti-Human CD3, BD Biosciences, Cat #555333, stored at 4° C. • Mouse anti-human Phosphorylation-STAT5 (pY694) (Alexa Fluor® 647 Conjugate), BD Biosciences, Cat #562076, stored at 4° C. • IFN-α, Biolegend, Cat #592702
1) On the day of experiment, the compound was prepared into a 10 mM solution with DMSO, diluted to 1.5 mM in DMSO, and then diluted to 8 gradient concentrations in 3-fold dilutions.
2) 5 μL of the diluted compound was transferred into 120 ul of DPBS solution containing 0.1% BSA.
3) Positive and negative control groups were set up, with the addition of 0.2% DMSO to the positive and negative control groups.
1) Add 0.5 million and 67.5 uL of human PBMC cells to each well of the 96-well cell culture plate.
2) Add 3.5 uL of diluted compound and mix well.
3) Incubate in a 37° C. incubator for 60 minutes.
4) Dilute IFN-alpha in DPBS containing 0.1% BSA to 600 ng/mL, and dilute PE-anti-hCD3 antibody in DPBS containing 0.1% BSA to 3 fold. After the above incubation for 60-minute, add diluted PE-anti-hCD3 antibody at 5 uL per well and add diluted IFN-α at 4 uL per well, i.e., the final concentration of IFN-α per well was 30 ng/ml.
5) Incubate in a 37° C. incubator for 30 minutes.
6) Transfer all cells to a 96-well deep well plate and add 1 mL of 37° C. preheated lysis/fix buffer.
7) Incubate at 37° C. in dark for 10 minutes.
8) Centrifuge at 600 g for 5 minutes and then discard the supernatant. Wash by adding 1 mL of PBS for twice and centrifuge.
9) Add 1 mL of Perm buffer III to the cell precipitation.
10) Incubate at 4° C. in dark for 30 minutes.
11) Centrifuge at 600 g for 5 minutes and then discard the supernatant. Wash by adding 1 mL of PBS for twice and centrifuge.
12) Dilute APC anti-human pSTAT5 antibody in staining buffer for 200 fold, and add it to cell well at 100 uL per well and mix well.
13) Incubate at room temperature for 40 minutes.
14) Wash twice by adding staining buffer with 1 mL for each well, and centrifuge at 600 g for 5 minutes.
15) Discard the supernatant, and re-suspend the cell precipitation in 300 uL of staining buffer.
16) Sample and analyze in a flow cytometer to obtain the IC50 of the samples to be tested, Table 1.
Consider `[2H]C([2H])([2H])NC(=O)c1cnc(NC(=O)[C@@H]2CC23CC3)cc1Nc1cccc(-c2ncn(C)n2)c1OC` [Compound 4R], for which half-maximal inhibition (IC50) was put at 5.3 nM. `[2H]C([2H])([2H])NC(=O)c1nnc(NC(=O)[C@H]2CC23CC3)cc1Nc1nccc(-c2ncn(C)n2)c1OC` [Compound 2S] came in with an IC50 of 3.9 nM. Still for that read-out and setting: in the case of `[2H]C([2H])([2H])NC(=O)c1nnc(NC(=O)[C@@H]2CC23CC3)cc1Nc1cccc(-c2ncn(C)n2)c1OC` [Compound 1R] it was 6.3 nM; in that of `[2H]C([2H])([2H])NC(=O)c1nnc(NC(=O)[C@@H]2CC23CC3)cc1Nc1nccc(-c2ncn(C)n2)c1OC` [Compound 2R], 5.7 nM.

Consider `[2H]C([2H])([2H])NC(=O)c1nnc(NC(=O)[C@H]2CC23CC3)cc1Nc1cccc(-c2noc(COC)n2)c1OC` [Compound 3S], for which the IC50 was found to be 22.8 nM. On the same count and under the same terms, with `[2H]C([2H])([2H])NC(=O)c1cnc(NC(=O)[C@H]2CC23CC3)cc1Nc1cccc(-c2ncn(C)n2)c1OC` [Compound 4S] the figure was 4.1 nM. On the same count and under the same terms, in the case of `[2H]C([2H])([2H])NC(=O)c1nnc(NC(=O)C2CC23CC3)cc1Nc1nccc(-c2noc(COC)n2)c1OC` (centres unmarked) [Compound 5] it was 13 nM. On the same count and under the same terms, with `[2H]C([2H])([2H])NC(=O)c1nnc(NC(=O)[C@H]2CC23CC3)cc1Nc1cccc(-c2ncn(C)n2)c1OC` [Compound 1S] the figure was 4.2 nM.

The IC50 is the point on the concentration scale where inhibition reaches its midpoint. Low values mean greater potency in that assay, high ones weaker potency in that assay.
